Source: patent US12371428B2 (Exelixis, Inc., priority 2019, dated 2025)
Read-outs that look alike come from different tables or passages of the source.

Legend:
Type in all cases: cell-based
[1] = molecular target: AXL (phospho-AXL, Gas6-stimulated A-172 glioblastoma cells) (Homo sapiens (Human), UniProt P30530); experiment: AXL autophosphorylation ELISA in A-172 cells (Example E); details: cellular activity, read-out: Axl IC50
Outline: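 Phospho-AXL was measured by ELISA in lysates of Gas6-stimulated A-172 cells, starved 24 h in serum-free medium and exposed 1 h to an 8-point compound dilution at 0.3% DMSO.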

[2] = molecular target: Met (phospho-Met, HGF-stimulated PC-3 prostate cancer cells) (Homo sapiens (Human), UniProt P08581); experiment: Met autophosphorylation ELISA in PC-3 cells (Example F); details: cellular activity, read-out: c-Met IC50
Outline: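 IC50 values derive from a 4-parameter logistic fit of phospho-Met (panTyr) sandwich ELISA signals in PC-3 lysates, scaled between DMSO and reference-inhibitor wells. Cells, starved 3 h in serum-free medium, had 1 h compound exposure (8 doses, 0.3% DMSO) before 10 min stimulation with 100 ng/mL HGF.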

[3] = molecular target: Mer (phospho-Mer, MERTK-transfected 293A cells) (Homo sapiens (Human), UniProt Q12866); experiment: Mer autophosphorylation ELISA in transient transfected 293A cells (Example H); details: cellular activity
Outline: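 MERTK-transfected 293A; 8-pt dose, 1 h, serum-free, 0.3% DMSO. Cold lysis with orthovanadate and protease/phosphatase inhibitors. Phospho-Mer by DuoSet IC ELISA vs phospho-Mer standard. IC50: 4-PL fit; DMSO = 100%, reference inhibitor = 0%.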

[4] = molecular target: KDR (phospho-KDR, VEGF165-stimulated HUVEC cells) (Homo sapiens (Human), UniProt P35968); experiment: KDR autophosphorylation ELISA in HUVEC cells (Example G); details: cellular activity
Outline: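 First, endothelial cells were cultured a day, then kept without serum for another day. Next came 1 h with serially diluted compound, a brief 5 min VEGF165 stimulus (100 ng/mL), rapid lysis, and ELISA detection of receptor phosphorylation relative to stimulated and non-stimulated controls.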

[5] = AXL autophosphorylation ELISA in A-172 cells
[6] = Met autophosphorylation ELISA in PC-3 cells
[7] = Mer autophosphorylation ELISA in transient transfected 293A cells
[8] = KDR autophosphorylation ELISA in HUVEC cells

AXL (phospho-AXL, Gas6-stimulated A-172 glioblastoma cells), sequence (P30530 26-894): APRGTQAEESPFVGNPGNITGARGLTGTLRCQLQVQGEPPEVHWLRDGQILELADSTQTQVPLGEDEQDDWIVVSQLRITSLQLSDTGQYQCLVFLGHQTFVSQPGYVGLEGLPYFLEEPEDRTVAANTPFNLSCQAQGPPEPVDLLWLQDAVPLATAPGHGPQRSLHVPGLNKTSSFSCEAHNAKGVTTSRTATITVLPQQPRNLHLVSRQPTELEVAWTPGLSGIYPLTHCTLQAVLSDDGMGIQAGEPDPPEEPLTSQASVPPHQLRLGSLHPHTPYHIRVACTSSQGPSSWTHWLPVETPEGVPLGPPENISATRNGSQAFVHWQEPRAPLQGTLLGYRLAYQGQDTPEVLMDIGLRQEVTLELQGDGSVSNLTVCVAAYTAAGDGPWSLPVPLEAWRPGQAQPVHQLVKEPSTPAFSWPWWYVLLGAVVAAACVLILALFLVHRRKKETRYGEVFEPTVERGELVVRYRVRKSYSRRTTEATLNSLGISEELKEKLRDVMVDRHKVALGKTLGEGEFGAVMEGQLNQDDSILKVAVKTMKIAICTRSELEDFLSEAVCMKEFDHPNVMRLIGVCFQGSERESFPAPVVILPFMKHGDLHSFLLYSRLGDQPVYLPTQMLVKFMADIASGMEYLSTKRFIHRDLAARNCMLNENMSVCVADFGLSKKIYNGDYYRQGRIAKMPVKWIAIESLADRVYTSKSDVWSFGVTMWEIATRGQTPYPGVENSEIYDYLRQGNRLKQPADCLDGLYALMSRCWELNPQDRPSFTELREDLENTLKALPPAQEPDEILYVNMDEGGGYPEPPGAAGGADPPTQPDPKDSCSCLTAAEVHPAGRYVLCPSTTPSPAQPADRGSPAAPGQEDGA
Mer (phospho-Mer, MERTK-transfected 293A cells), sequence (Q12866 21-999): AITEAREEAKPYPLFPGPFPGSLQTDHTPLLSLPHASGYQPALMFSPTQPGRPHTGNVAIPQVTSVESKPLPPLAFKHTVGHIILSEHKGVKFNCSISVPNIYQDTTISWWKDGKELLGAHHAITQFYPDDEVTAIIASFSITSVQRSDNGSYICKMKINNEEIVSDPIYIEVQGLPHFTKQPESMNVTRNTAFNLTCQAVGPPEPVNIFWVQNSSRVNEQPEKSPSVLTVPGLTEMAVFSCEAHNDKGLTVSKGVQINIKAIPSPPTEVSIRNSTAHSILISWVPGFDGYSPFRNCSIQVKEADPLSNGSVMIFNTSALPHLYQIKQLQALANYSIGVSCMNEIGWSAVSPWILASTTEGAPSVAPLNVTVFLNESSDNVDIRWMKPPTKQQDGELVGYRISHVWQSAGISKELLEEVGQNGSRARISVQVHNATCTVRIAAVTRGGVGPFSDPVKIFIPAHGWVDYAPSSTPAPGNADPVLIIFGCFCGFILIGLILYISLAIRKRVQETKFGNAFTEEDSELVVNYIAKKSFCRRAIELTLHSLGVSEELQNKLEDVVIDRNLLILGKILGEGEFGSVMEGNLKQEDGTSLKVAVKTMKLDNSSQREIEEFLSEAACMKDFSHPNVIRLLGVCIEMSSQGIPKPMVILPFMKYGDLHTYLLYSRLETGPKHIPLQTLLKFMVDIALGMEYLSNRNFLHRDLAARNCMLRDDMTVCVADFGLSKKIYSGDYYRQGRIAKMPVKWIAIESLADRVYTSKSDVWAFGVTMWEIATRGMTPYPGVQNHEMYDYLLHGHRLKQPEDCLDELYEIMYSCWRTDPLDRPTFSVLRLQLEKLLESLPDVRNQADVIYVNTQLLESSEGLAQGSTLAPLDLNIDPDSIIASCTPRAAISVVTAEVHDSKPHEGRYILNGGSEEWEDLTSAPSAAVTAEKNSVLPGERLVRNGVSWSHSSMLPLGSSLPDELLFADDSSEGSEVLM
Met (phospho-Met, HGF-stimulated PC-3 prostate cancer cells), sequence (P08581 25-1390): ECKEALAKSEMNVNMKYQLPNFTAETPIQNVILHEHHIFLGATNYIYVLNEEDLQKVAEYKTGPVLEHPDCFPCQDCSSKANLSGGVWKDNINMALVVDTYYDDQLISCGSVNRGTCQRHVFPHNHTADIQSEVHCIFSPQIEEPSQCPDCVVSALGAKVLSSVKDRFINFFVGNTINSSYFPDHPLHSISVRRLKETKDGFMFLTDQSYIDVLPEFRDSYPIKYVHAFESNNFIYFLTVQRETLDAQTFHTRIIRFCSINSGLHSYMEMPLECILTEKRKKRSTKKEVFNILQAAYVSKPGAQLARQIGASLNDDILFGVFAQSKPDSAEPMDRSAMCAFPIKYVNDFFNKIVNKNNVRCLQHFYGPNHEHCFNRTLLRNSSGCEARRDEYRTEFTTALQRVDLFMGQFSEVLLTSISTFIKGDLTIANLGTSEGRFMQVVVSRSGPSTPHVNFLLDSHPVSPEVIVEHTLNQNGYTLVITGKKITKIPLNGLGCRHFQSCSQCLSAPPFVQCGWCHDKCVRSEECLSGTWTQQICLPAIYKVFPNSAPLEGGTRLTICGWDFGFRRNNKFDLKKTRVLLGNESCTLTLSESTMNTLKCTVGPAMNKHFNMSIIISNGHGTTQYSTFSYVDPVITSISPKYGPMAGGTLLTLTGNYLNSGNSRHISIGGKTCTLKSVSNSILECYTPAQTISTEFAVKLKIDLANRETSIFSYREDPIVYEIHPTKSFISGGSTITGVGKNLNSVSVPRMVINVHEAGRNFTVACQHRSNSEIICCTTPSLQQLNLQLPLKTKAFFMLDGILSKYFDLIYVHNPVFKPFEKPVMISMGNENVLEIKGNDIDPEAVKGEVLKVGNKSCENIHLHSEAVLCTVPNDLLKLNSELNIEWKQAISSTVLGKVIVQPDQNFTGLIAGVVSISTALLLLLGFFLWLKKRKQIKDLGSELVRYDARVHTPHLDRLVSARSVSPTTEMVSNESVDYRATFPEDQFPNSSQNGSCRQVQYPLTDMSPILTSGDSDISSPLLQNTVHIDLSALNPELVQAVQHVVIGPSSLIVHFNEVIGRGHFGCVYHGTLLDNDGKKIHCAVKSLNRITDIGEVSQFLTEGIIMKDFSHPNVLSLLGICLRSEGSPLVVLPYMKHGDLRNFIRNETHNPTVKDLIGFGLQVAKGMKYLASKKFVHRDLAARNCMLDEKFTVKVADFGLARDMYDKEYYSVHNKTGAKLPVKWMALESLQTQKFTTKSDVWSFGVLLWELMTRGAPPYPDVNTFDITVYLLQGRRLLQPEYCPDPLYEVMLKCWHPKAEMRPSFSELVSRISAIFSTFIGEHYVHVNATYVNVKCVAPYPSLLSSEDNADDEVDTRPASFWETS
KDR (phospho-KDR, VEGF165-stimulated HUVEC cells), sequence (P35968 20-1356): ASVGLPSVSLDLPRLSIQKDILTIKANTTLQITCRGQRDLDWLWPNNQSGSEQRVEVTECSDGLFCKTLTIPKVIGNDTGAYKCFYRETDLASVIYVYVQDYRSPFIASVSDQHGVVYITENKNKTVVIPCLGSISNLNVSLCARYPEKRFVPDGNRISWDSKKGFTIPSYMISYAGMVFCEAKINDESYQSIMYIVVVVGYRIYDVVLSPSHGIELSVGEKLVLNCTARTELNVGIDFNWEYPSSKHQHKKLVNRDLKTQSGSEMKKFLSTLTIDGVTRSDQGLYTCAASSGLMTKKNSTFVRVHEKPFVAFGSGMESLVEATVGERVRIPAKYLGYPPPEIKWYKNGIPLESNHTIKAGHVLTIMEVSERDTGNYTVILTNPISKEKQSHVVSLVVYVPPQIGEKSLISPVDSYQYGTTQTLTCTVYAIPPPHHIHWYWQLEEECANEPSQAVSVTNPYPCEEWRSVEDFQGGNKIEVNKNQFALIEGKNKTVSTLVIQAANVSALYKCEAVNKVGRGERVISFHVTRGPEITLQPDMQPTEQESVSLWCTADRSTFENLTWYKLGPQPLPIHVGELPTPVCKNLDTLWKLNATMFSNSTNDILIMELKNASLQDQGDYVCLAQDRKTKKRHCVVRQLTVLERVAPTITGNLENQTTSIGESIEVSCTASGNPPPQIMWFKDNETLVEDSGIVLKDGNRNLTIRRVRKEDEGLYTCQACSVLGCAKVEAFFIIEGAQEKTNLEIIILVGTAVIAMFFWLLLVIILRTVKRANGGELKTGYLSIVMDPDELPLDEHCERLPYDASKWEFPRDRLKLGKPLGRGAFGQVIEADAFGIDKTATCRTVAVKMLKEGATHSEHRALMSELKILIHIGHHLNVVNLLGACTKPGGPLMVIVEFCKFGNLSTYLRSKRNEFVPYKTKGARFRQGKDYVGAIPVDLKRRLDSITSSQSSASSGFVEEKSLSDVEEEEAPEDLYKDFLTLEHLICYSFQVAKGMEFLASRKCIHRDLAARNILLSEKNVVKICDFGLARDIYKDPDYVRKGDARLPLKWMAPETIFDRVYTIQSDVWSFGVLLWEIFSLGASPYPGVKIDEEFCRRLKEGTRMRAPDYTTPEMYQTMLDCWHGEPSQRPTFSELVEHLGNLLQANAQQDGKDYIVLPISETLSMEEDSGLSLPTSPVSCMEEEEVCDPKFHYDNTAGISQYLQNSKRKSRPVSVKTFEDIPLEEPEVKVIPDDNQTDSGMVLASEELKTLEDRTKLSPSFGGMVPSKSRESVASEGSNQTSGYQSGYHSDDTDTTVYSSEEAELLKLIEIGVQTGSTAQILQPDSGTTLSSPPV

SMILES	IC50 [1, 5]	IC50 [2, 6]	IC50 [3, 7]	IC50 [4, 8]	IC50 ([1]; A-172 cells)	IC50 ([2]; PC-3 cells)	IC50 ([3]; transfected 293A cells)	IC50 ([4]; HUVEC cells)
COc1cnc2c(Oc3ccc(NC(=O)c4c5n(c(C)c(-c6ccc(F)cc6C)c4=O)CCOC5)cc3F)ccnc2c1 [Compound 784, N-[3-fluoro-4-[(7-methoxy-1,5-naphthyridin-4-yl)oxy]phenyl]-7-(4-fluoro-2-methylphenyl)-6-methyl-8-oxo-3,4-dihydro-1H-pyrido[2,1-c][1,4]oxazine-9-carboxamide]	< 100 nM	< 100 nM	< 100 nM	> 300 nM				
COc1cc2nccc(Oc3ccc(NC(=O)c4cnc(C)c(-c5ccc(F)cc5F)c4O)cc3F)c2nc1OC [Compound 395, 5-(2,4-difluorophenyl)-N-[4-[(6,7-dimethoxy-1,5-naphthyridin-4-yl)oxy]-3-fluorophenyl]-4-hydroxy-6-methylpyridine-3-carboxamide]	< 100 nM	< 100 nM	< 100 nM	< 100 nM				
COc1ccc2nccc(Oc3ccc(NC(=O)c4nnc(C)c(-c5ccc(F)cc5)c4OC)cc3F)c2n1 [Compound 538, N-[3-fluoro-4-[(6-methoxy-1,5-naphthyridin-4-yl)oxy]phenyl]-5-(4-fluorophenyl)-4-methoxy-6-methylpyridazine-3-carboxamide]	< 100 nM	< 100 nM	< 100 nM	< 100 nM				
COc1cnc2c(Oc3ccc(NC(=O)c4c(C)nc(C)c(-c5ccc(F)c(OC)c5)c4O)cc3F)ccnc2c1 [Compound 688, N-[3-fluoro-4-[(7-methoxy-1,5-naphthyridin-4-yl)oxy]phenyl]-5-(4-fluoro-3-methoxyphenyl)-4-hydroxy-2,6-dimethylpyridine-3-carboxamide]	< 100 nM	< 100 nM	< 100 nM	< 100 nM				
COc1cc2nccc(Oc3ccc(NC(=O)c4c5n(cc(-c6ccc(F)cc6)c4=O)CCOC5)cc3F)c2nc1OC [Compound 808, N-[4-[(6,7-dimethoxy-1,5-naphthyridin-4-yl)oxy]-3-fluorophenyl]-7-(4-fluorophenyl)-8-oxo-3,4-dihydro-1H-pyrido[2,1-c][1,4]oxazine-9-carboxamide]					< 100 nM	< 100 nM	< 100 nM	> 300 nM
COc1cc2nccc(Oc3ccc(NC(=O)c4c(C)c(C(C)=O)cn(-c5ccc(F)cc5C)c4=O)cc3F)c2nc1OC [Compound 739, 5-acetyl-N-[4-[(6,7-dimethoxy-1,5-naphthyridin-4-yl)oxy]-3-fluorophenyl]-1-(4-fluoro-2-methylphenyl)-4-methyl-2-oxopyridine-3-carboxamide]	< 100 nM	< 100 nM	< 100 nM	> 300 nM				
COc1cc2nccc(Oc3ccc(NC(=O)c4cn(CCO)c(CO)c(-c5ccc(F)cc5C)c4=O)cc3F)c2nc1OC [Compound 765, N-[4-[(6,7-dimethoxy-1,5-naphthyridin-4-yl)oxy]-3-fluorophenyl]-5-(4-fluoro-2-methylphenyl)-1-(2-hydroxyethyl)-6-(hydroxymethyl)-4-oxopyridine-3-carboxamide]	< 100 nM	< 100 nM	< 100 nM	> 300 nM				
COc1cnc2c(Oc3ccc(NC(=O)c4cnc(C)c(-c5ccc(S(C)(=O)=O)cc5)c4O)cc3F)ccnc2c1 [Compound 697, N-[3-fluoro-4-[(7-methoxy-1,5-naphthyridin-4-yl)oxy]phenyl]-4-hydroxy-6-methyl-5-(4-methylsulfonylphenyl)pyridine-3-carboxamide]	> 300 nM	100 to 300 nM	< 100 nM	> 300 nM				
COc1cnc2c(Oc3c(F)cc(NC(=O)c4c(C)nc(C)c(-c5ccc(F)cc5C)c4O)cc3F)ccnc2c1 [Compound 767, N-[3,5-difluoro-4-[(7-methoxy-1,5-naphthyridin-4-yl)oxy]phenyl]-5-(4-fluoro-2-methylphenyl)-4-hydroxy-2,6-dimethylpyridine-3-carboxamide]	< 100 nM	< 100 nM	< 100 nM	< 100 nM				
COc1cnc2c(Oc3ccc(NC(=O)c4cn(CC(F)F)c(C)c(-c5ccc(F)cc5C)c4=O)cc3)ccnc2c1 [Compound 731, 1-(2,2-difluoroethyl)-5-(4-fluoro-2-methylphenyl)-N-[4-[(7-methoxy-1,5-naphthyridin-4-yl)oxy]phenyl]-6-methyl-4-oxopyridine-3-carboxamide]	< 100 nM	< 100 nM	< 100 nM	> 300 nM				
COc1cc2nccc(Oc3ccc(NC(=O)c4c(C)n(C)c(C)c(-c5ccc(F)c(C)c5)c4=O)cc3F)c2nc1OC [Compound 821, N-[4-[(6,7-dimethoxy-1,5-naphthyridin-4-yl)oxy]-3-fluorophenyl]-5-(4-fluoro-3-methylphenyl)-1,2,6-trimethyl-4-oxopyridine-3-carboxamide]					< 100 nM	< 100 nM	< 100 nM	100 to 300 nM
COc1cc2nccc(Oc3ccc(NC(=O)c4c(C)c(F)cn(-c5ccc(F)cc5)c4=O)cc3)c2nc1OC [Compound 665, N-[4-[(6,7-dimethoxy-1,5-naphthyridin-4-yl)oxy]phenyl]-5-fluoro-1-(4-fluorophenyl)-4-methyl-2-oxopyridine-3-carboxamide]	< 100 nM	< 100 nM	< 100 nM	100 to 300 nM				
C=Cc1c(C)c(C(=O)Nc2ccc(Oc3ccnc4cc(OC)c(OC)nc34)cc2)c(=O)n(-c2ccc(F)cc2)c1C [Compound 328, N-[4-[(6,7-Dimethoxy-1,5-naphthyridin-4-yl)oxy]phenyl]-5-ethenyl-1-(4-fluorophenyl)-4,6-dimethyl-2-oxopyridine-3-carboxamide]	< 100 nM	< 100 nM	< 100 nM	> 300 nM				
COc1cnc2c(Oc3ccc(NC(=O)c4cn5c(c(-c6ccc(F)cc6)c4=O)COCC5)cc3F)ccnc2c1 [Compound 661, N-[3-fluoro-4-[(7-methoxy-1,5-naphthyridin-4-yl)oxy]phenyl]-9-(4-fluorophenyl)-8-oxo-3,4-dihydro-1H-pyrido[2,1-c][1,4]oxazine-7-carboxamide]	< 100 nM	< 100 nM	< 100 nM	> 300 nM				
COc1ccc(-c2c(C)ncc(C(=O)Nc3ccc(Oc4ccnc5cc(OC)cnc45)c(F)c3)c2O)c(OC)c1 [Compound 696, 5-(2,4-dimethoxyphenyl)-N-[3-fluoro-4-[(7-methoxy-1,5-naphthyridin-4-yl)oxy]phenyl]-4-hydroxy-6-methylpyridine-3-carboxamide]	> 300 nM	100 to 300 nM	< 100 nM	< 100 nM				
COc1cc2nccc(Oc3ccc(NC(=O)c4c(C)nc(C)c(-c5ccc(F)cc5C)c4O)cc3)c2nc1OC [Compound 681, N-[4-[(6,7-dimethoxy-1,5-naphthyridin-4-yl)oxy]phenyl]-5-(4-fluoro-2-methylphenyl)-4-hydroxy-2,6-dimethylpyridine-3-carboxamide]	< 100 nM	< 100 nM	< 100 nM	< 100 nM				
C=Cc1c(C)c(C(=O)Nc2ccc(Oc3ccnc4cc(OCCOC)c(OC)nc34)c(F)c2)c(=O)n(-c2ccc(F)cc2)c1C [Compound 740, 5-ethenyl-N-[3-fluoro-4-[[6-methoxy-7-(2-methoxyethoxy)-1,5-naphthyridin-4-yl]oxy]phenyl]-1-(4-fluorophenyl)-4,6-dimethyl-2-oxopyridine-3-carboxamide]	< 100 nM	< 100 nM	< 100 nM	< 100 nM				
Cc1ccc2nccc(Oc3ccc(NC(=O)c4cn(C)c(CO)c(-c5ccc(F)cc5)c4=O)cc3F)c2n1 [Compound 749, N-[3-fluoro-4-[(6-methyl-1,5-naphthyridin-4-yl)oxy]phenyl]-5-(4-fluorophenyl)-6-(hydroxymethyl)-1-methyl-4-oxopyridine-3-carboxamide]	< 100 nM	< 100 nM	< 100 nM	> 300 nM				
COCCOc1cc2nccc(Oc3ccc(NC(=O)c4c(C)ccn(-c5ccc(F)cc5)c4=O)cc3)c2nc1OC [Compound 704, 1-(4-fluorophenyl)-N-[4-[[6-methoxy-7-(2-methoxyethoxy)-1,5-naphthyridin-4-yl]oxy]phenyl]-4-methyl-2-oxopyridine-3-carboxamide]	< 100 nM	< 100 nM	< 100 nM	< 100 nM				
COc1cc2nccc(Oc3cc(F)c(NC(=O)c4cn(C)c(C)c(-c5ccc(F)cc5)c4=O)cc3C)c2nc1OC [Compound 746, N-[4-[(6,7-dimethoxy-1,5-naphthyridin-4-yl)oxy]-2-fluoro-5-methylphenyl]-5-(4-fluorophenyl)-1,6-dimethyl-4-oxopyridine-3-carboxamide]	< 100 nM	< 100 nM	< 100 nM	> 300 nM				
